# Reference: the NIST ThermoML archive (doi:10.1021/acs.jced.5b01102)
# ± gives the expanded uncertainty stated by the source.
# Test: refractive index (Na D-line) (dimensionless)
# Settings: 298.15 K; 101.33 kPa; Liquid; Standard Abbe refractometry
row,Structure (SMILES),refractive index
1,CCO [ethanol],1.35947 ± 0.00033
2,O [water],1.33251 ± 0.00031
3,CO [methanol],1.32655 ± 0.00031
